Laboratory results reported in patent publication US20160324149A1, “ADJUVANTS FOR PLANT GROWTH REGULATORS” (VERDESIAN LIFE SCINCES, LLC, priority 2014, published 2016).

Tested on: soybean seedlings
Experiment: Soybean seedling spray test, dry weight one week later
Type: in vivo
Details: for Mean Plant Dry Wt. / Total Dry Wt.: sprayed at 20 gallons per acre, harvested one week later
Procedure: In this test, soybean seedlings at true leaf emergence were sprayed with a series of aqueous test solutions at a rate of 20 gallons per acre. In those solutions including AVAIL®, use was made of AVAIL® for liquid phosphate fertilizers. The beans were then harvested one week later and were counted, dried, and weighed, and average weight per plant was determined.

SMILES: C=C1C[C@]23C[C@@]1(O)CC[C@H]2[C@@]12C=C[C@H](O)[C@@](C)(C(=O)O1)[C@H]2[C@@H]3C(=O)O [gibberellic acid]
- Mean plant dry weight as gibberellic acid concentration increased (50-500 ppm): the mean plant dry weight also increased
- Mean Plant Dry Wt. (50 ppm gibberellic acid): 1.594 g
- Total Dry Wt. (50 ppm gibberellic acid): 17.53 g
- Mean Plant Dry Wt. (100 ppm gibberellic acid): 1.808 g
- Total Dry Wt. (100 ppm gibberellic acid): 18.08 g
- Mean Plant Dry Wt. (250 ppm gibberellic acid): 1.718 g
- Total Dry Wt. (250 ppm gibberellic acid): 20.61 g
- Mean Plant Dry Wt. (500 ppm gibberellic acid): 2.280 g
- Total Dry Wt. (500 ppm gibberellic acid): 22.80 g
